Results: article PMC11217419, “TRP14 is the rate-limiting enzyme for intracellular cystine reduction and regulates proteome cysteinylation” (The EMBO Journal, 2024)

Target: T1, TXDC-17 (C. elegans TRP14) (Caenorhabditis elegans, UniProt Q9BL27)
T1 construct: recombinant, purified with the same methodologies as the human orthologue
T1 sequence (Q9BL27 1-132): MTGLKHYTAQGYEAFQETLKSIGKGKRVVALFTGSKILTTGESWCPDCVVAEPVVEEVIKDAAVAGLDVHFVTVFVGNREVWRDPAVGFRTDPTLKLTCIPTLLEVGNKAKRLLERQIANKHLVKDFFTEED
Test: coupled cystine reduction assay with C. elegans TRXR-1
Format: biochemical
Settings: with C. elegans TRXR-1 as reductase

For `N[C@@H](CSSC[C@H](N)C(=O)O)C(=O)O` [cystine], the “coupled cystine reduction assay with C. elegans TRXR-1” value was “TXDC-17, together with its native reductase, could efficiently reduce cystine in vitro”.
